Results on seven compounds are retold here after patent US8809386B2, “Use of dynamin ring stabilizers” (Children's Medical Research Institute, priority 2009, dated 2014).

Experiment [1] relates to truncated dynamin I construct known as GG2. Description: Basal GTPase activity of assembly-incompetent dynamin construct GG2. In kind it is biochemical. The settings on record: FIG. 5. The text has this:
FIG. 5 is a graph showing the basal GTPase activity of the truncated dynamin I construct known as GG2, containing only the GTPase domain linked to a small part of the GED domain (Chappie et al 2009). Unlike full length dynamin this construct is known to be unable to self-assemble or to form rings. Bis-T-22 and -23 and imminodyn-22 have no effect on the basal activity of this assembly-incompetent construct.
To verify that ring stabilizers require dynamin oligomerisation, a recombinant form of dynamin, called GG-2, which is dimeric yet is unable to self-associate into higher order oligomers (Chappie et al 2009) was tested. Ring stabilizers are unable to stimulate the basal activity of such constructs (FIG. 5).

In the next experiment the target is F-actin. The experiment can be described thus: Actin co-sedimentation assay, dynamin-F-actin binding (Scatchard plot). The conditions noted are these: 5 μM F-actin, centrifugation at 100,000×g, FIG. 14. The method, then: Increasing concentrations of dynamin (free) were added to 5 μM of F-actin. After centrifugation at 100,000×g proteins were separated on SDS-PAGE and bands were analyzed using densitometry.
To determine whether dynamin affects the actin cytoskeleton, the question of whether dynamin might directly bind filamentous actin (F-actin) was tested. In particular, an actin co-sedimentation assay was performed in which F-actin sediments under high-speed centrifugation. If dynamin interacts with F-actin it would be expected to co-sediment, and thus be present in the pellet fraction. In the presence of F-actin, but not in its absence, the majority of dynamin was found in the pellet (FIG. 12, lanes 2 and 14). […] The Kd of dynamin for actin was approximately 0.4 μM, which is similar to the affinities of other actin binding proteins such as α-actinin 4 for actin (Weins et al. 2005).
Next, the actin binding site was mapped to a region between amino acids 399 and 444 amino acids of dynamin II (dyn2) (FIG. 13). As predicted for an actin binding domain (Van et al. 1996), this region contains several positively charged amino acids conserved in all dynamin gene products from yeast to mammals. It is also alternatively spliced within different mammalian dynamin isoforms (called variant a and b in dynamins I and II) (see FIG. 13, SEQ ID No. 1-4). Site-directed mutagenesis was performed on conserved, charged residues within this actin binding domain to generate the putative ‘loss of function’ mutants, dynK/E (SEQ ID No. 9) and dynK/A (SEQ ID No. 10), and a putative ‘gain of function’ mutant, dynE/K (SEQ ID No. 11) (FIG. 13). […] All three mutant proteins had wild-type kinetic properties with respect to the basal and stimulated rate of GTP hydrolysis, indicating proper folding.

For the next experiment, the target named is T1, full length dynamin I (Ovis aries, UniProt A0ACI6NZN1).
T1 sequence (A0ACI6NZN1 1-864): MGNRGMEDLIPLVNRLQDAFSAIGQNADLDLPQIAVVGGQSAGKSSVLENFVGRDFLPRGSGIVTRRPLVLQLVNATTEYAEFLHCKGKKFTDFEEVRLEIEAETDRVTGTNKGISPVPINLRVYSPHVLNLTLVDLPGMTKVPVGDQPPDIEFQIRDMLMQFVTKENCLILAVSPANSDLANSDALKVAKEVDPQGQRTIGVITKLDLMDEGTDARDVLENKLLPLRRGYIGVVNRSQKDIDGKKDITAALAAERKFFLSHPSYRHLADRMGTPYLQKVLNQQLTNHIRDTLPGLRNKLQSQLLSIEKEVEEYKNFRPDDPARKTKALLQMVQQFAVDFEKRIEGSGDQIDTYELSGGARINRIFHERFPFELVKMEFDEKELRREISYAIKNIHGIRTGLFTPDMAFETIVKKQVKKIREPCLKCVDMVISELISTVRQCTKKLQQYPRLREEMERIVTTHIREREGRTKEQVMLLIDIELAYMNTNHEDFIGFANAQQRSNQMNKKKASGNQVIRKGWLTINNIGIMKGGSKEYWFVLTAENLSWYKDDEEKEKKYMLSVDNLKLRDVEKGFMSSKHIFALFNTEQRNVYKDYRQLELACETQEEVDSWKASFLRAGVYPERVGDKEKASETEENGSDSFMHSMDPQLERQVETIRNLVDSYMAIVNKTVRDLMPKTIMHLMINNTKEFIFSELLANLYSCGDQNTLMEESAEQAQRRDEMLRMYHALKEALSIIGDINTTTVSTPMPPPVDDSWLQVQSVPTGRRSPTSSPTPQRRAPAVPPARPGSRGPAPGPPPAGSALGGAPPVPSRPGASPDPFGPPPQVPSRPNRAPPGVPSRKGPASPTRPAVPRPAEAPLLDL
The experiment can be described thus: Basal dynamin GTPase activity in the absence of PS liposomes or other template (ring stabilizer activity). In kind it is biochemical, sheep. The settings on record: for stimulation of basal dynamin GTPase activity in the presence of Tween-80: dynI 200 nM, Tween-80 0.06%, Bis-T series 10 μM, all other compounds 30 μM, FIG. 11B. The method, then: The compounds were present at the indicated concentrations and the concentration causing half-maximal stimulation is shown as the EC50.
Dynamin I (50 nM) GTPase stimulation was performed in the absence of the detergent Tween-80 (and in the absence of any known activators such as PS liposomes, nanotubes or microtubules). […] The GTPase activity of dynamin I (dynI; 200 nM) was measured in the absence of lipid activators (and in the presence of standard Tween-80 at 0.06%).
A compound (whether a dynamin inhibitor or not) can be identified as a dynamin ring stabilizer by assaying for its capacity to promote accumulation of dynamin rings and/or to inhibit disassembly of dynamin rings. […] GTPase activity of dynamin or dynamin rings can be determined by any conventionally known method (e.g., see Quan and Robinson. 2005). Such conditions include: (a) the absence of a helix assembly template such as liposomes, microtubules or lipid nanotubes, and (b) higher concentrations of dynamin than normally required for detecting template stimulated activity, typically 50-500 nM dynamin instead of 1-20 nM. Thus, ring stabilizer activity can be identified by the ability to stimulate the GTPase activity of full length dynamin in the absence of other stimulatory factors (such as PS liposomes, microtubules or nanotubes). Additional defining characteristics are available but are not essential if the first condition has been met. One such additional characteristic of ring stabilizer activity is that the stimulated activity occurs after a lag phase of a few minutes, rather than being an immediate activation in vitro. […] Such conditions typically mean utilising 50-200 nM dynamin in the absence of a template as distinct from higher concentrations where self-assembly is known to occur without the addition of a dynamin ring stabilizer.
Next, a time course experiment of Bis-T-23 stimulation of dynamin GTPase (FIG. 3) was conducted. […] The lag phase is thought to indicate the time required for dynamin to assemble as rings.

Consider `N=c1oc2c(O)c(O)ccc2cc1C(=O)NCCCNC(=O)c1cc2ccc(O)c(O)c2oc1=N` [Iminodyn 22], for which the “effect on basal GTPase activity of GG2” value in experiment [1] is given as “no effect”.
As usually defined, the Kd is the equilibrium constant for the complex coming apart. The compound “dynK/A: ‘loss of function’ dynamin mutant in the actin binding domain (SEQ ID No. 10) (RTGLFTPDLAFEAIVAAQVVALAEPCLACVDLVIQELISTVRQCTS; listed as Mus musculus)” registered a Kd on F-actin of 2800 nM.
Still for that read-out and setting: under “dynK/E: ‘loss of function’ dynamin mutant in the actin binding domain (SEQ ID No. 9) (RTGLFTPDLAFEAIVEEQVVELEEPCLECVDLVIQELISTVRQCTS; listed as Mus musculus)” stands 1700 nM.
As to `O=C(N/N=C/c1ccc(O)c(O)c1)c1cc2ccccc2cc1O` [Dynasore, 3-hydroxynaphthalene-2-carboxylic acid (3,4-dihydroxybenzylidene) hydrazide, reference compound], the “stimulation of basal dynamin GTPase activity in the absence of Tween-80” value on full length dynamin I (Dynamin I 50 nM, no Tween-80, no activators, FIG. 11A) was “stimulated basal dynamin GTPase activity to similar extents as Bis-T-23”. Further, the “stimulation of basal dynamin GTPase activity in the presence of Tween-80” value on full length dynamin I is “failed to stimulate basal GTPase activity”.
For the compound `N=c1oc2c(O)cccc2cc1C(=O)NCCCNC(=O)c1cc2cccc(O)c2oc1=N` [Iminodyn 20], on full length dynamin I (absence of PS, Table 2), the ring stabilizer activity entry was “no ring stabilizer activity”.
Consider `O=C(N/N=C/c1cc(O)c(O)cc1O)c1cc2ccccc2cc1O` [Dyngo-4a], for which the “stimulation of basal dynamin GTPase activity in the presence of Tween-80” value at full length dynamin I is recorded as “effective”.
Consider “dynE/K: ‘gain of function’ dynamin mutant in the actin binding domain (SEQ ID No. 11) (RTGLFTPDLAFEAIVKKQVVKLKKPCLKCVDLVIQKLISTVRQCTS; listed as Mus musculus)”, for which, at F-actin, binding was put at a Kd of 30 nM.
